Patent US10543286B2, “Methods for increasing platelet count by inhibiting biliverdin IXβ reductase” (The Research Foundation for The State University of New York, priority 2015, dated 2020)

Columns and labels:
[1] = target: T1, biliverdin IX beta reductase (BLVRB) (Homo sapiens, UniProt P30043); assay: BLVRB flavin reductase inhibition assay (FMN/NADPH, absorbance at 340 nm); format: biochemical; details: 300 nM recombinant BLVRB, 200 μM FMN, 100 μM NADPH, 100 mM potassium phosphate pH 7.6, 37° C.; read-out: IC50, concentration of inhibitor needed to inhibit the target enzyme by 50% (flavin reductase activity of BLVRB)
T1 construct: BLVRBWT and BLVRBS111L open reading frames were PCR-amplified and directionally-cloned into pGEX-KG expression vector; GST (N, cleaved yes); made in house; LB medium, IPTG induction
T1 sequence (P30043 1-206): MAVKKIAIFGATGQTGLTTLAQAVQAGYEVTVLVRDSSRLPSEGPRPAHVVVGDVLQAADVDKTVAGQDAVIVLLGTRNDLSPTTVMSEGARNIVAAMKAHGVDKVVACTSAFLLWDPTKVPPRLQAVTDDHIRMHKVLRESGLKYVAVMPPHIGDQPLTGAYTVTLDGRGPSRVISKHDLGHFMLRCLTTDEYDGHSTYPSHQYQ
Description: In one embodiment, the agent is a. chemical compound. An example of such a compound is described in Example 7. Inhibition of enzyme activity by the compound was tested in a reaction containing 100 mM potassium phosphate, pH 7.6, 200 μM FMN (flavin mononucleotide), 100 μM NADPH.
Reactions were initiated by the addition of 300 nM recombinant BLVRB. Enzymatic activity was monitored by following the decrease in absorbance at 340 nm which corresponds to the oxidation of NADPH to NADP^+. […] (FIG. 9)

[2] = system: control or iPSC/BLVRB^S111L cells (NCRM1 iPSCs); assay: TBHP-induced ROS accumulation in genetically-modified iPSCs (CellROX Green, flow cytometry); format: cell-based; details: Homo sapiens, 1 hour at 37° C., read-out: concentration causing ROS accumulation in 50% of cells (EC50)
Description: FIG. 3i is a bar graph showing ROS expression by genetically-modified NCRM1 iPSCs. About 1×10^5, cells were labeled as in FIG. 2h, and treated (or not) with 200 μM tert-butyl hydroperoxide (TBHP) for 1 hour at 37° C., and ROS-expressing cells were quantitated by flow cytometry after a 60 minute period loading with cell-permeable CellROX Green (500 nM) as indicator (N=6); p-values *<0.05; **<0.01; ***<0.001; ****<0.0001. From left to right, the bars correspond to activity in control cells, activity in cells having BLVRB^WT, and activity in cells having BLVRB^S111L.
Hematopoietic-derived (CD34^+) induced pluripotent stein cells (iPSC) expressing endogenous BLVRB were initially developed as heterozygous models designed to phenocopy zygosity state in subject cohorts. […]
Human CD34^+-derived NCRM1 induced pluripotent stem cells (iPSC) were genetically modified using lentivirus infection (MOI 9) for generation of stable cell lines after puromycin selection (iPSC/BLVRB^S111L, iPSC/BLVRB^WT, iPSC/Control). Oxidation/reduction activity was quantified in vitro using the NADPH-dependent redox coupler resazurin; cells (4×10^4/well) were plated and propagated in mTeSR1 medium and at 24 hours were incubated with resazurin (0.1 v/v) followed by serial spectrofluorimetric detection (530 nm excitation, 590 nm emission) for the reduced resorufin byproduct. […]

SMILES | IC50 [1] | EC50 [2]
COc1ccc2nc3cc(Cl)ccc3c(Nc3ccc(O)c(CN4CCN(C)CC4)c3)c2c1 [compound 1301] | 30.7 µM | –
CC(C)(C)OO [TBHP, tert-butyl hydroperoxide] | – | 200 µM
